# Laboratory results reported in publication PMC11979273, “A phase I study to evaluate the safety, tolerability, and pharmacokinetics of HEC113995PA·H2O, a novel dual-acting serotonergic antidepressant, in healthy subjects” (Frontiers in Pharmacology, 2025).
# Like-named read-outs stand apart in the source and are kept apart here.
# Assay: Single ascending-dose (SAD) study, plasma pharmacokinetics
# Type: in vivo, human
# Conditions: for Cmax / AUC(0-t) / k el / AUC(0-inf) / MRT / Vd/F / half-life / Tmax: both sexes, human
# Experimental: The study comprised a total of 7 dose groups (2.5, 5, 10, 20, 40, 60, and 80 mg groups, respectively). The first dose group (2.5 mg) consisted of 8 subjects, with 6 receiving HEC113995PA·H2O and 2 receiving placebo. Dose groups 2–7 each included 10 subjects, with 8 subjects receiving HEC113995PA·H2O and 2 subjects receiving placebo. Male and female participants were randomly assigned to the groups. Serial blood samples were collected before and after drug administration to determine the plasma concentration of pharmacokinetics (PK) and to evaluate the pharmacokinetic characteristics. The time points of blood collection and safety evaluation of PK in the second to seventh dose groups were adjusted based on the results of the first dose group. Drug safety and tolerability were evaluated on day 2 and 4 in the first dose group and on day 4 and 7 in the second to seventh dose groups. The trial was conducted in a dose-escalation manner, with progression to the next dose arm only after the safety of the previous arm had been evaluated. In the fourth group (20 mg group), in addition to blood samples, urine and stool samples were also collected for in vivo drug metabolic transformation studies.
# In the first dose group of single ascending-dose study, PK blood samples were collected at 0.5 h before administration and 0.5, 1, 1.5, 2, 2.5, 3, 4, 5, 6, 8, 10, 12, 24, 36, 48, and 72 h after administration. In other SAD groups, MAD groups and food effect study, PK blood samples were collected at 0.5 h before administration, and 1, 2, 3, 4, 5, 6, 7, 8, 10, 12, 24, 48, 72, 96, 120 and 144 h after administration. Approximately 4 mL of venous blood was obtained from each collection and placed in a vacuum collection vessel containing K2EDTA anticoagulant. The blood was centrifuged and packed according to the instruction provided by the Biological Sample Detection and Analysis Unit. Briefly, all samples were centrifuged at 4°C, 1,500 g for 10 min within 0.5 h after blood collection. After centrifugation, the plasma was aliquoted into two cryogenic storage tubes. The first tube (Tube A) contained at least 0.8 mL of plasma for analytical testing, and the remaining plasma is allocated into the backup tube (Tube B). The plasma samples were stored at −80°C within 1 h after aliquoting for further analysis.
# The concentration of HEC113995PA·H2O in human plasma samples (K2EDTA) was quantitatively analyzed using the LC-MS/MS method. Plasma samples (50 μL) were processed using protein precipitation with 5 μL deuterated internal standard (HEC124659) and 100 μL acetonitrile. The Shimadzu LCMS-8060 system coupled with a GL Sciences Inc. InertSustain AQ-C18 HP column (50 × 2.1 mm, 3 μm) achieved chromatographic separation through gradient elution using 0.04% TFA aqueous solution (pH 2.1) and acetonitrile at 0.4 mL/min. ESI-positive mode detection employed optimized parameters: 300°C interface temperature, 250°C DL temperature, 3 L/min nebulizer gas, and 400°C heating block temperature.
# Using WinNonlin 7.0 for non-compartmental analysis (NCA), pharmacokinetic (PK) parameters were meticulously calculated based on the actual sampling times for plasma, urine, and fecal samples from each subject post-administration. These parameters encompassed a comprehensive range, including the area under the concentration–time curve (AUC), AUC from time zero (pre-dose) to the time of the last measurable concentration (AUC0-t), and AUC from time zero (pre-dose) to infinity (AUC0-∞). Additionally, maximum observed plasma concentration (Cmax), time to achieve maximum plasma concentration (Tmax), terminal elimination half-life (t1/2), elimination rate constant (Ke), apparent volume of distribution (Vd/F), clearance rate (CL/F), and mean residence time (MRT) were also determined. The AUC0-t and AUC0-∞ values were computed using the linear trapezoidal rule method. Tmax and Cmax were ascertained based on the actual observed data. […]
# [1] = across single-dose groups 2.5–80 mg
smiles,measurement,setting,value
Cc1nc(-c2cnc(N3CCN(CCCc4c[nH]c5ccc(C#N)cc45)CC3)nc2)sc1C(N)=O [HEC113995PA·H2O],Cl/F,"SAD single dose 2.5 mg, N = 6, mean (SD)",12.03 (3.52) L/h
same,Cl/F,"SAD single dose 5 mg, N = 8, mean (SD)",10.94 (1.75) L/h
same,Cl/F,"SAD single dose 10 mg, N = 8, mean (SD)",12.65 (3.13) L/h
same,Cl/F,"SAD single dose 20 mg, N = 8, mean (SD)",14.53 (5.78) L/h
same,Cl/F,"SAD single dose 40 mg, N = 8, mean (SD)",14.14 (4.06) L/h
same,Cl/F,"SAD single dose 60 mg, N = 8, mean (SD)",15.07 (4.58) L/h
same,Cl/F,"SAD single dose 80 mg, N = 8, mean (SD)",14 (2.41) L/h
same,"apparent clearance (CL/F), range of arithmetic means",[1],10.9380 to 15.0736 L/h
same,"elimination rate constant (Kel), range of arithmetic means",[1],0.0187 to 0.0256 h⁻¹
same,Cmax,"oral, SAD single dose 2.5 mg, N = 6, plasma, mean (SD), read-out: Cmax",0.00527 µg/mL
same,Cmax,"oral, SAD single dose 5 mg, N = 8, plasma, mean (SD), read-out: Cmax",0.014 µg/mL
same,Cmax,"oral, SAD single dose 10 mg, N = 8, plasma, mean (SD), read-out: Cmax",0.0244 µg/mL
same,Cmax,"oral, SAD single dose 20 mg, N = 8, plasma, mean (SD), read-out: Cmax",0.0406 µg/mL
same,Cmax,"oral, SAD single dose 40 mg, N = 8, plasma, mean (SD), read-out: Cmax",0.0885 µg/mL
same,Cmax,"oral, SAD single dose 60 mg, N = 8, plasma, mean (SD), read-out: Cmax",0.149 µg/mL
same,Cmax,"oral, SAD single dose 80 mg, N = 8, plasma, mean (SD), read-out: Cmax",0.164 µg/mL
same,AUC(0-t),"plasma, oral, 2.5 mg, SAD single dose 2.5 mg, N = 6, mean (SD), read-out: AUC0-t",0.177 µg·h/mL
same,AUC(0-t),"plasma, oral, 5 mg, SAD single dose 5 mg, N = 8, mean (SD), read-out: AUC0-t",0.439 µg·h/mL
same,AUC(0-t),"plasma, oral, 10 mg, SAD single dose 10 mg, N = 8, mean (SD), read-out: AUC0-t",0.801 µg·h/mL
same,AUC(0-t),"plasma, oral, 20 mg, SAD single dose 20 mg, N = 8, mean (SD), read-out: AUC0-t",1.45 µg·h/mL
same,AUC(0-t),"plasma, oral, 40 mg, SAD single dose 40 mg, N = 8, mean (SD), read-out: AUC0-t",2.91 µg·h/mL
same,AUC(0-t),"plasma, oral, 60 mg, SAD single dose 60 mg, N = 8, mean (SD), read-out: AUC0-t",4.1 µg·h/mL
same,AUC(0-t),"plasma, oral, 80 mg, SAD single dose 80 mg, N = 8, mean (SD), read-out: AUC0-t",5.65 µg·h/mL
same,k el,"plasma, oral, SAD single dose 2.5 mg, N = 6, mean (SD)",6.39e-06 s⁻¹
same,AUC(0-inf),"plasma, oral, SAD single dose 2.5 mg, N = 6, mean (SD), read-out: AUC0-∞",0.22 µg·h/mL
same,MRT,"plasma, oral, SAD single dose 2.5 mg, N = 6, mean (SD), read-out: MRT",44.8 h
same,Vd/F,"plasma, oral, SAD single dose 2.5 mg, N = 6, mean (SD), read-out: Vz/F",518 L
same,half-life,"plasma, oral, SAD single dose 2.5 mg, N = 6, mean (SD), read-out: t1/2 (converted)",30.3 h
same,Tmax,"plasma, oral, SAD single dose 2.5 mg, N = 6, median (min, max), read-out: Tmax",6 h
same,k el,"plasma, oral, SAD single dose 5 mg, N = 8, mean (SD)",7.11e-06 s⁻¹
same,AUC(0-inf),"plasma, oral, SAD single dose 5 mg, N = 8, mean (SD), read-out: AUC0-∞",0.467 µg·h/mL
same,MRT,"plasma, oral, SAD single dose 5 mg, N = 8, mean (SD), read-out: MRT",39.8 h
same,Vd/F,"plasma, oral, SAD single dose 5 mg, N = 8, mean (SD), read-out: Vz/F",430 L
same,half-life,"plasma, oral, SAD single dose 5 mg, N = 8, mean (SD), read-out: t1/2 (converted)",27.2 h
same,Tmax,"plasma, oral, SAD single dose 5 mg, N = 8, median (min, max), read-out: Tmax",5 h
same,k el,"plasma, oral, SAD single dose 10 mg, N = 8, mean (SD)",7.11e-06 s⁻¹
same,AUC(0-inf),"plasma, oral, SAD single dose 10 mg, N = 8, mean (SD), read-out: AUC0-∞",0.832 µg·h/mL
same,MRT,"plasma, oral, SAD single dose 10 mg, N = 8, mean (SD), read-out: MRT",39.1 h
same,Vd/F,"plasma, oral, SAD single dose 10 mg, N = 8, mean (SD), read-out: Vz/F",494 L
same,half-life,"plasma, oral, SAD single dose 10 mg, N = 8, mean (SD), read-out: t1/2 (converted)",28 h
same,Tmax,"plasma, oral, SAD single dose 10 mg, N = 8, median (min, max), read-out: Tmax",6 h
same,k el,"plasma, oral, SAD single dose 20 mg, N = 8, mean (SD)",5.19e-06 s⁻¹
same,AUC(0-inf),"plasma, oral, SAD single dose 20 mg, N = 8, mean (SD), read-out: AUC0-∞",1.52 µg·h/mL
same,MRT,"plasma, oral, SAD single dose 20 mg, N = 8, mean (SD), read-out: MRT",42.2 h
same,Vd/F,"plasma, oral, SAD single dose 20 mg, N = 8, mean (SD), read-out: Vz/F",772 L
same,half-life,"plasma, oral, SAD single dose 20 mg, N = 8, mean (SD), read-out: t1/2 (converted)",38.6 h
same,Tmax,"plasma, oral, SAD single dose 20 mg, N = 8, median (min, max), read-out: Tmax",8 h
same,k el,"plasma, oral, SAD single dose 40 mg, N = 8, mean (SD)",6.08e-06 s⁻¹
same,AUC(0-inf),"plasma, oral, SAD single dose 40 mg, N = 8, mean (SD), read-out: AUC0-∞",3.01 µg·h/mL
same,MRT,"plasma, oral, SAD single dose 40 mg, N = 8, mean (SD), read-out: MRT",38.1 h
same,Vd/F,"plasma, oral, SAD single dose 40 mg, N = 8, mean (SD), read-out: Vz/F",661 L
same,half-life,"plasma, oral, SAD single dose 40 mg, N = 8, mean (SD), read-out: t1/2 (converted)",32.2 h
same,Tmax,"plasma, oral, SAD single dose 40 mg, N = 8, median (min, max), read-out: Tmax",5 h
same,k el,"plasma, oral, SAD single dose 60 mg, N = 8, mean (SD)",6.11e-06 s⁻¹
same,AUC(0-inf),"plasma, oral, SAD single dose 60 mg, N = 8, mean (SD), read-out: AUC0-∞",4.24 µg·h/mL
same,MRT,"plasma, oral, SAD single dose 60 mg, N = 8, mean (SD), read-out: MRT",35.3 h
same,Vd/F,"plasma, oral, SAD single dose 60 mg, N = 8, mean (SD), read-out: Vz/F",762 L
same,half-life,"plasma, oral, SAD single dose 60 mg, N = 8, mean (SD), read-out: t1/2 (converted)",36.6 h
same,Tmax,"plasma, oral, SAD single dose 60 mg, N = 8, median (min, max), read-out: Tmax",5.5 h
same,k el,"plasma, oral, SAD single dose 80 mg, N = 8, mean (SD)",6.08e-06 s⁻¹
same,AUC(0-inf),"plasma, oral, SAD single dose 80 mg, N = 8, mean (SD), read-out: AUC0-∞",5.87 µg·h/mL
same,MRT,"plasma, oral, SAD single dose 80 mg, N = 8, mean (SD), read-out: MRT",40.5 h
same,Vd/F,"plasma, oral, SAD single dose 80 mg, N = 8, mean (SD), read-out: Vz/F",666 L
same,half-life,"plasma, oral, SAD single dose 80 mg, N = 8, mean (SD), read-out: t1/2 (converted)",33.4 h
same,Tmax,"plasma, oral, SAD single dose 80 mg, N = 8, median (min, max), read-out: Tmax",6 h
same,AUC(0-t),"plasma, oral, across single-dose groups 2.5–80 mg, read-out: AUC0-t, geometric mean range",0.172 to 5.58 µg·h/mL
same,AUC(0-inf),"plasma, oral, across single-dose groups 2.5–80 mg, read-out: AUC0-∞, geometric mean range",0.214 to 5.79 µg·h/mL
same,AUC(0-t),"plasma, oral, across single-dose groups 2.5–80 mg, read-out: AUC0–24h, geometric mean range",0.0884 to 2.68 µg·h/mL
same,Cmax,"plasma, oral, across single-dose groups 2.5–80 mg, read-out: Cmax, geometric mean range",0.0051 to 0.157 µg/mL
same,Vd/F,"plasma, oral, across single-dose groups 2.5–80 mg, read-out: apparent volume of distribution (Vz/F), range of arithmetic means",430 to 772 L
same,half-life,"plasma, oral, across single-dose groups 2.5–80 mg, read-out: half-life (t1/2), range of arithmetic means",27.2 to 38.6 h
same,MRT,"plasma, oral, across single-dose groups 2.5–80 mg, read-out: mean residence time (MRT), range of arithmetic means",35.3 to 44.8 h
same,Tmax,"plasma, oral, across single-dose groups 2.5–80 mg, read-out: median time to peak plasma concentration (Tmax), range",5 to 8 h
same,AUC(0-inf),"plasma, po, SAD single dose 20 mg, N = 8, mean (SD), read-out: AUC0-∞",1.52 µg·h/mL
same,Cmax higher than Vilazodone,equivalent 20 mg doses (40.6 vs. 28.5 ng/mL),42%
same,AUC0-∞ greater than Vilazodone,"equivalent 20 mg doses (1,519.6 vs. 502 h ng/mL)",threefold greater
